Among the test systems are MDA-N; EKVX; NCI-H460; CAKI-1; KM12; RXF 393; MDA-MB-435; MDA-MB-231; BT-549; NCI-H522; RPMI-8226; COLO 205; U-251; HCC 2998; OVCAR-5; HCT-15; SN12C; M14; DU-145; SR.
What all share (experiment): NCI anticancer screen, dose series, 48 h

Structures are written as SMILES.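 Method: 48-hour compound exposure of cells in 96-well plates, five concentrations, linear interpolation of endpoints. At the GI50, growth is halved.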 Activity calls are given as the source filed them. Rule as the data show it: active = GI50 up to about 1.1 µM and inactive = higher. A value given as a limit tells only on which side of the number the result lay.

For `O=C1C(=CNc2ccccc2Cl)C(=O)N(c2ccccc2)C(=O)N1c1ccccc1`, the GI50 with MDA-N, in the experiment on EKVX, in the experiment with NCI-H460, in the experiment on CAKI-1, in the experiment on KM12 and in the experiment with RXF 393 was > 100 µM (inactive) throughout. Besides, the GI50 in the experiment with MDA-MB-435, in the experiment with MDA-MB-231, in the experiment on BT-549, with NCI-H522, with RPMI-8226 and with COLO 205 was > 100 µM (inactive) in each case. In addition, the GI50 with U-251 was > 100 µM (inactive); in the experiment on HCC 2998 it was > 100 µM (inactive); in the experiment on OVCAR-5, > 100 µM (inactive); in the experiment with HCT-15, over 100 µM; in the experiment with SN12C it was > 100 µM (inactive); with M14, 92.7 µM (inactive).
Consider `C/C=C\C(CC(=O)NCCC1CN(S(=O)(=O)c2ccc(C)cc2)c2ccccc21)CC(=O)OC` (stereo unspecified), for which the GI50 in the experiment with DU-145, in the experiment on MDA-N, in the experiment on EKVX, in the experiment with NCI-H460, with CAKI-1 and in the experiment on KM12 was > 100 µM (inactive) in each case. Further, the GI50 in the experiment with RXF 393, in the experiment on MDA-MB-435, with MDA-MB-231, with BT-549, with NCI-H522 and in the experiment with RPMI-8226 was > 100 µM (inactive) in each case. In addition, the GI50 in the experiment on COLO 205 was > 100 µM (inactive); in the experiment on U-251 it was > 100 µM (inactive); in the experiment with HCC 2998, > 100 µM (inactive); in the experiment with OVCAR-5, > 100 µM (inactive); in the experiment with HCT-15, over 100 µM; in the experiment with M14, > 100 µM (inactive).
`COc1cc2c(cc1O)C1Cc3ccc(OC)c(O)c3C[N+]1(C)CC2` (stereo unspecified): the GI50 in the experiment on DU-145, in the experiment on MDA-N, in the experiment on EKVX, with NCI-H460, in the experiment with CAKI-1 and with KM12 was > 100 µM (inactive) throughout. For the same molecule, the GI50 in the experiment with RXF 393, in the experiment on MDA-MB-435, with MDA-MB-231, in the experiment with BT-549, in the experiment with RPMI-8226 and with COLO 205 was > 100 µM (inactive) each time. For the same molecule, the GI50 in the experiment on U-251 is > 100 µM (inactive); in the experiment with HCC 2998, > 100 µM (inactive); in the experiment on OVCAR-5, > 100 µM (inactive); in the experiment with HCT-15, over 100 µM; in the experiment with SN12C, > 100 µM (inactive); with M14, > 100 µM (inactive).
For the molecule `N#CCCN(CCC#N)c1ccc(/C=C2\N=C(c3ccccc3)N(NC(=O)c3ccncc3)C2=O)cc1`, the GI50 in the experiment with DU-145, with MDA-N, in the experiment with EKVX, with NCI-H460, in the experiment on KM12 and with RXF 393 was > 100 µM (inactive) throughout. In addition, the GI50 in the experiment with MDA-MB-435 was 69.3 µM (inactive); with MDA-MB-231 it was > 100 µM (inactive); in the experiment on BT-549 it was > 100 µM (inactive); in the experiment on RPMI-8226, > 100 µM (inactive); with COLO 205, > 100 µM (inactive); in the experiment on U-251, > 100 µM (inactive). The GI50 in the experiment with OVCAR-5 is > 100 µM (inactive); with HCT-15 it was over 100 µM; with SN12C it was > 100 µM (inactive); with M14, > 100 µM (inactive).
As for `C=CCOc1cc(NC(=S)c2ccoc2C)ccc1OC`, the GI50 in the experiment on DU-145, in the experiment on MDA-N, with EKVX, with NCI-H460, in the experiment on CAKI-1 and with KM12 was > 100 µM (inactive) each time. Besides, the GI50 in the experiment on MDA-MB-435, in the experiment with MDA-MB-231, with BT-549, with NCI-H522, with RPMI-8226 and in the experiment with COLO 205 was > 100 µM (inactive) in each case. The GI50 in the experiment with U-251 was 58.9 µM (inactive); in the experiment with HCC 2998, > 100 µM (inactive); in the experiment with OVCAR-5, > 100 µM (inactive); with HCT-15, over 100 µM; in the experiment on SN12C it was > 100 µM (inactive); with M14 it was > 100 µM (inactive).
With `CCOC(=O)CCC(NC(=O)OCc1ccccc1)C(=O)NC(CCC(=O)OCC)C(=O)NC(CCC(=O)OCC)C(=O)NC(CCC(=O)OCC)C(=O)NC(CCC(=O)OCC)C(=O)OCC` (stereo unspecified), the GI50 in the experiment on DU-145, in the experiment with MDA-N, in the experiment on EKVX, in the experiment with NCI-H460, with CAKI-1 and in the experiment on KM12 was > 100 µM (inactive) each time. Moreover, the GI50 with RXF 393, with MDA-MB-435, in the experiment with BT-549, with NCI-H522, in the experiment with RPMI-8226 and in the experiment on COLO 205 was > 100 µM (inactive) throughout. Moreover, the GI50 in the experiment with U-251 is > 100 µM (inactive); in the experiment on SR, > 100 µM (inactive); in the experiment on OVCAR-5 it was > 100 µM (inactive); in the experiment on HCT-15 it was over 100 µM; in the experiment on SN12C it was > 100 µM (inactive); in the experiment with M14, > 100 µM (inactive).
With `O=C(NC(CCCCN1C(=O)c2ccccc2C1=O)P(=O)(Oc1ccccc1)Oc1ccccc1)OCc1ccccc1` (stereo unspecified), the GI50 in the experiment on DU-145, in the experiment with MDA-N, in the experiment on EKVX, in the experiment with NCI-H460, with CAKI-1 and with KM12 was > 100 µM (inactive) throughout. Further, the GI50 in the experiment on RXF 393 is > 100 µM (inactive); in the experiment with MDA-MB-435 it was > 100 µM (inactive); in the experiment with BT-549, > 100 µM (inactive); in the experiment with NCI-H522 it was 75 µM (inactive); with RPMI-8226, > 100 µM (inactive); with COLO 205, > 100 µM (inactive). Further, the GI50 is > 100 µM (inactive) with U-251; > 100 µM (inactive) in the experiment on HCC 2998; > 100 µM (inactive) with SR; > 100 µM (inactive) in the experiment on OVCAR-5; over 10 µM in the experiment on HCT-15; > 100 µM (inactive) in the experiment with SN12C. Also, in the experiment on M14, the GI50 is > 100 µM (inactive).
`COc1cccc(CSCC(=O)O)c1`: the GI50 in the experiment on DU-145, in the experiment with MDA-N, in the experiment with EKVX, in the experiment on NCI-H460, in the experiment with CAKI-1 and in the experiment with KM12 was > 100 µM (inactive) throughout. The GI50 in the experiment on RXF 393, in the experiment on MDA-MB-435, in the experiment on MDA-MB-231, in the experiment with BT-549, in the experiment on NCI-H522 and with RPMI-8226 was > 100 µM (inactive) throughout. Moreover, the GI50 in the experiment with COLO 205 was > 100 µM (inactive); in the experiment on U-251, > 100 µM (inactive); in the experiment on OVCAR-5, > 100 µM (inactive); in the experiment with HCT-15, over 100 µM; with SN12C, > 100 µM (inactive); in the experiment with M14 it was > 100 µM (inactive).
For the molecule `O=C1CC=C2C3CC4N(CCC45c4ccccc4N1C25)C/C3=C\CO` (stereo unspecified), the GI50 in the experiment on DU-145, in the experiment with MDA-N, in the experiment on EKVX, in the experiment with NCI-H460, with CAKI-1 and in the experiment with KM12 was > 100 µM (inactive) throughout. The GI50 in the experiment with MDA-MB-435, in the experiment with MDA-MB-231, in the experiment with BT-549, with NCI-H522, with RPMI-8226 and in the experiment on COLO 205 was > 100 µM (inactive) throughout. For the same molecule, the GI50 was > 100 µM (inactive) with U-251; > 100 µM (inactive) with HCC 2998; > 100 µM (inactive) in the experiment with OVCAR-5; over 100 µM in the experiment with HCT-15; > 100 µM (inactive) in the experiment with SN12C.
`Cc1ccc(Nc2[nH]c(=O)[nH]c(=O)c2C)cc1Cl`: the GI50 was > 100 µM (inactive) in the experiment on MDA-N; 11 µM (inactive) in the experiment on EKVX; > 100 µM (inactive) in the experiment with NCI-H460; 67.3 µM (inactive) in the experiment with CAKI-1; > 100 µM (inactive) in the experiment on KM12; > 100 µM (inactive) with RXF 393. Besides, the GI50 was > 100 µM (inactive) with MDA-MB-435; > 100 µM (inactive) in the experiment on MDA-MB-231; > 100 µM (inactive) in the experiment with BT-549; > 100 µM (inactive) in the experiment on NCI-H522; 58.5 µM (inactive) in the experiment with RPMI-8226; > 100 µM (inactive) in the experiment with COLO 205. Further, the GI50 with U-251 is > 100 µM (inactive); in the experiment on HCC 2998 it was > 100 µM (inactive); in the experiment with OVCAR-5, > 100 µM (inactive); with HCT-15, 91.6 µM; in the experiment with SN12C it was > 100 µM (inactive); in the experiment on M14, > 100 µM (inactive).
As to `C[C@H](CC[C@@H](O)C(C)(C)O)[C@H]1CC[C@@]2(C)[C@@H]3CC=C4[C@@H](CC[C@H](OC5OC(CO)C(O)C(O)C5O)C4(C)C)[C@]3(C)C(=O)C[C@]12C` (stereo partly specified), the GI50 was 39 µM (inactive) in the experiment with DU-145; 32.7 µM (inactive) in the experiment with MDA-N; 80.4 µM (inactive) in the experiment on EKVX; 52.4 µM (inactive) in the experiment with NCI-H460; 65 µM (inactive) in the experiment on CAKI-1; > 100 µM (inactive) in the experiment with KM12. The GI50 with RXF 393 is 35.2 µM (inactive); in the experiment on MDA-MB-435, 42.6 µM (inactive); in the experiment with MDA-MB-231 it was > 100 µM (inactive); in the experiment with BT-549, 56.5 µM (inactive); with NCI-H522 it was 37.6 µM (inactive); in the experiment on COLO 205 it was 48.9 µM (inactive). The GI50 in the experiment on U-251 was 33.6 µM (inactive); in the experiment on HCC 2998, 89.7 µM (inactive); in the experiment with OVCAR-5, > 100 µM (inactive); in the experiment with HCT-15, 67.9 µM; in the experiment on SN12C, 69 µM (inactive); in the experiment on M14 it was 31.1 µM (inactive).
